Source: ChEMBL document CHEMBL4004838, “Design and synthesis of novel phenyl -1, 4-beta-carboline-hybrid molecules as potential anticancer agents” (Eur J Med Chem, 2017)

How the values were obtained:
[1] = tested on: NCI-H322M; assay: Growth inhibition of human NCI-H322M cells assessed as cell growth at 0.01 uM incubated for 48 hrs by sulforhodamine B assay relative to control; type: functional; settings: read-out: Activity
[2] = tested on: SNB-75; assay: Growth inhibition of human SNB75 cells assessed as cell growth at 100 uM incubated for 48 hrs by sulforhodamine B assay relative to control; type: functional; settings: SNB-75, 48 h, read-out: Activity
[3] = tested on: COLO 205; assay: Growth inhibition of human COLO205 cells assessed as cell growth at 0.01 uM incubated for 48 hrs by sulforhodamine B assay relative to control; type: functional; settings: COLO 205, 48 h, read-out: Activity
[4] = tested on: NCI-H23; assay: Growth inhibition of human NCI-H23 cells incubated for 48 hrs by sulforhodamine B assay; type: functional; settings: NCI-H23, 48 h
[5] = tested on: BT-549; assay: Growth inhibition of human BT549 cells assessed as cell growth at 0.1 uM incubated for 48 hrs by sulforhodamine B assay relative to control; type: functional; settings: BT-549, 48 h, read-out: Activity
[6] = tested on: BT-549; assay: Growth inhibition of human BT549 cells incubated for 48 hrs by sulforhodamine B assay; type: functional; settings: BT-549, 48 h
[7] = tested on: IGROV-1; assay: Growth inhibition of human IGROV1 cells incubated for 48 hrs by sulforhodamine B assay; type: functional; settings: IGROV-1, 48 h
[8] = tested on: COLO 205; assay: Growth inhibition of human COLO205 cells assessed as cell growth at 100 uM incubated for 48 hrs by sulforhodamine B assay relative to control; type: functional; settings: COLO 205, 48 h, read-out: Activity
[9] = tested on: K562; assay: Growth inhibition of human K562 cells assessed as cell growth at 100 uM incubated for 48 hrs by sulforhodamine B assay relative to control; type: functional; settings: K562, 48 h, read-out: Activity
[10] = tested on: 786-0; assay: Growth inhibition of human 786-0 cells assessed as cell growth at 1 uM incubated for 48 hrs by sulforhodamine B assay relative to control; type: functional; settings: 786-0, 48 h, read-out: Activity
[11] = tested on: RXF 393; assay: Growth inhibition of human RXF393 cells incubated for 48 hrs by sulforhodamine B assay; type: functional; settings: RXF 393, 48 h
[12] = tested on: HOP-92; assay: Growth inhibition of human HOP92 cells assessed as cell growth at 1 uM incubated for 48 hrs by sulforhodamine B assay relative to control; type: functional; settings: HOP-92, 48 h, read-out: Activity
[13] = tested on: NCI-H460; assay: Growth inhibition of human NCI-H460 cells assessed as cell growth at 1 uM incubated for 48 hrs by sulforhodamine B assay relative to control; type: functional; settings: NCI-H460, 48 h, read-out: Activity
[14] = tested on: U-251; assay: Growth inhibition of human U251 cells incubated for 48 hrs by sulforhodamine B assay; type: functional; settings: U-251, 48 h
[15] = tested on: OVCAR-3; assay: Growth inhibition of human OVCAR3 cells assessed as cell growth at 0.01 uM incubated for 48 hrs by sulforhodamine B assay relative to control; type: functional; settings: OVCAR-3, 48 h, read-out: Activity
[16] = tested on: K562; assay: Growth inhibition of human K562 cells assessed as cell growth at 0.01 uM incubated for 48 hrs by sulforhodamine B assay relative to control; type: functional; settings: K562, 48 h, read-out: Activity
[17] = molecular target: Albumin (Bos taurus, UniProt P02769); assay: Binding affinity to Bovine serum albumin assessed as at 0.10 to 1 uM by UV-Visible spectrophotometric method; type: ADME; settings: cattle, isolated protein
Chain of Albumin (P02769 whole entry): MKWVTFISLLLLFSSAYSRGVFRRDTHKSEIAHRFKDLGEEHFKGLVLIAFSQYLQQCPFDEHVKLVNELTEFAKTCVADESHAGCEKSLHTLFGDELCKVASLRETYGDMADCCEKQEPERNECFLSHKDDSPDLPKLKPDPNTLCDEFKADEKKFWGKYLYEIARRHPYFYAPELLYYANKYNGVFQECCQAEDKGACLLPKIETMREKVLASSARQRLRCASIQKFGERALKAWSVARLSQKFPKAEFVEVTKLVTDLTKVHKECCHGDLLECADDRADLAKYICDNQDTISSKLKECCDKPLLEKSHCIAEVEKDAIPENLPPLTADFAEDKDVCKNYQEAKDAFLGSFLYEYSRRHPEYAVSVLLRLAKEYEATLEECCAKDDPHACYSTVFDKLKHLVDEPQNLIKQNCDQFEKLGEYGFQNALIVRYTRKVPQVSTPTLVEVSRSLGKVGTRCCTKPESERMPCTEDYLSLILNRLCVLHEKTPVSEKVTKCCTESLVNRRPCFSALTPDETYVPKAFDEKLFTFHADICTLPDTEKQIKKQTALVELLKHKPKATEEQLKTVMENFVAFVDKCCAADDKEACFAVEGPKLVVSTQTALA

[18] = tested on: A549; assay: Growth inhibition of human A549/ATCC cells assessed as cell growth at 1 uM incubated for 48 hrs by sulforhodamine B assay relative to control; type: functional; settings: A549, 48 h, read-out: Activity
[19] = tested on: KM12; assay: Growth inhibition of human KM12 cells assessed as cell growth at 0.1 uM incubated for 48 hrs by sulforhodamine B assay relative to control; type: functional; settings: KM12, 48 h, read-out: Activity
[20] = tested on: 786-0; assay: Growth inhibition of human 786-0 cells assessed as cell growth at 0.1 uM incubated for 48 hrs by sulforhodamine B assay relative to control; type: functional; settings: 786-0, 48 h, read-out: Activity
[21] = tested on: SNB-75; assay: Growth inhibition of human SNB75 cells incubated for 48 hrs by sulforhodamine B assay; type: functional; settings: SNB-75, 48 h
[22] = tested on: SNB-19; assay: Growth inhibition of human SNB19 cells assessed as cell growth at 1 uM incubated for 48 hrs by sulforhodamine B assay relative to control; type: functional; settings: SNB-19, 48 h, read-out: Activity
[23] = tested on: HL-60(TB); assay: Growth inhibition of human HL-60(TB) cells assessed as cell growth at 0.01 uM incubated for 48 hrs by sulforhodamine B assay relative to control; type: functional; settings: HL-60, 48 h, read-out: Activity
[24] = tested on: HT-29; assay: Growth inhibition of human HT-29 cells assessed as cell growth at 1 uM incubated for 48 hrs by sulforhodamine B assay relative to control; type: functional; settings: HT-29, 48 h, read-out: Activity
[25] = tested on: KM12; assay: Growth inhibition of human KM12 cells assessed as cell growth at 0.01 uM incubated for 48 hrs by sulforhodamine B assay relative to control; type: functional; settings: KM12, 48 h, read-out: Activity
[26] = tested on: PC-3; assay: Growth inhibition of human PC3 cells assessed as cell growth at 0.1 uM incubated for 48 hrs by sulforhodamine B assay relative to control; type: functional; settings: PC-3, 48 h, read-out: Activity
[27] = tested on: SF-295; assay: Growth inhibition of human SF295 cells incubated for 48 hrs by sulforhodamine B assay; type: functional; settings: SF-295, 48 h
[28] = tested on: SF-295; assay: Growth inhibition of human SF295 cells assessed as cell growth at 0.01 uM incubated for 48 hrs by sulforhodamine B assay relative to control; type: functional; settings: SF-295, 48 h, read-out: Activity
[29] = tested on: UO-31; assay: Growth inhibition of human UO31 cells assessed as cell growth at 100 uM incubated for 48 hrs by sulforhodamine B assay relative to control; type: functional; settings: UO-31, 48 h, read-out: Activity
[30] = tested on: KM12; assay: Growth inhibition of human KM12 cells assessed as cell growth at 1 uM incubated for 48 hrs by sulforhodamine B assay relative to control; type: functional; settings: KM12, 48 h, read-out: Activity
[31] = read-out: LC50 (the source's name)
[32] = read-out: pLC50 (the source's name) (converted)

With `c1ccc2c3c([nH]c2c1)C(c1ccc(C2NCCc4c2[nH]c2ccccc42)cc1)NCC3` (racemic) as the molecule, how does the growth at 0.01 µM [1] read?
The growth at 0.01 µM was 92%.

What about the growth at 100 µM [2] of the same molecule?
Its growth at 100 µM is 98%.

What about the growth at 0.01 µM [3] of the same molecule?
The growth at 0.01 µM was 95%.

And the GI50 ([4]; read-out: GI50)?
The GI50 was 1650 nM.

And the CC50 [4, 31]?
Its CC50 is 6.83 µM.

What about the TGI ([4]; read-out: TGI) of the same molecule?
The TGI was 3.36 µM.

What about the GI50 ([4]; read-out: pGI50 (converted)) of the same molecule?
The GI50 was 1660 nM.

What about the CC50 [4, 32] of the same molecule?
The CC50 was 6.76 µM.

What about the TGI ([4]; read-out: pTGI (converted)) of the same molecule?
The TGI was 3.39 µM.

And the growth at 0.1 µM [5]?
Its growth at 0.1 µM is 95%.

And the GI50 ([6]; read-out: GI50)?
Its GI50 is 1.11 µM.

And the CC50 [6, 31]?
Its CC50 is 5.37 µM.

And the TGI ([6]; read-out: TGI)?
Its TGI is 2.44 µM.

And the GI50 ([6]; read-out: pGI50 (converted))?
Its GI50 is 11.2 µM.

And the CC50 [6, 32]?
Its CC50 is 53.7 µM.

What about the TGI ([6]; read-out: pTGI (converted)) of the same molecule?
The TGI was 24.5 µM.

What about the GI50 ([7]; read-out: GI50) of the same molecule?
The GI50 was 1340 nM.

And the CC50 [7, 31]?
The CC50 was 5.99 µM.

And the TGI ([7]; read-out: TGI)?
The TGI was 2850 nM.

And the GI50 ([7]; read-out: pGI50 (converted))?
Its GI50 is 1350 nM.

And the CC50 [7, 32]?
The CC50 was 6.03 µM.

What about the TGI ([7]; read-out: pTGI (converted)) of the same molecule?
The TGI was 2820 nM.

What about the growth at 100 µM [8] of the same molecule?
The growth at 100 µM was 84%.

What about the growth at 100 µM [9] of the same molecule?
The growth at 100 µM was 78%.

And the growth at 1 µM [10]?
The growth at 1 µM was 92%.

And the GI50 ([11]; read-out: GI50)?
Its GI50 is 1310 nM.

And the CC50 [11, 31]?
Its CC50 is 5.45 µM.

And the TGI ([11]; read-out: TGI)?
The TGI was 2670 nM.

What about the GI50 ([11]; read-out: pGI50 (converted)) of the same molecule?
The GI50 was 1320 nM.

And the CC50 [11, 32]?
Its CC50 is 5.5 µM.

And the TGI ([11]; read-out: pTGI (converted))?
The TGI was 2690 nM.

And the growth at 1 µM [12]?
Its growth at 1 µM is 44%.

What about the growth at 1 µM [13] of the same molecule?
The growth at 1 µM was 56%.

What about the GI50 ([14]; read-out: pGI50 (converted)) of the same molecule?
Its GI50 is 324 nM.

What about the TGI ([14]; read-out: pTGI (converted)) of the same molecule?
The TGI was 1100 nM.

And the growth at 0.01 µM [15]?
Its growth at 0.01 µM is 100%.

What about the growth at 0.01 µM [16] of the same molecule?
The growth at 0.01 µM was 113%.

And the Activity [17]?
Its Activity is “Active”.

And the growth at 1 µM [18]?
Its growth at 1 µM is 56%.

And the growth at 0.1 µM [19]?
The growth at 0.1 µM was 95%.

What about the growth at 0.1 µM [20] of the same molecule?
Its growth at 0.1 µM is 103%.

And the CC50 [21, 31]?
Its CC50 is 4.59 µM.

What about the GI50 ([21]; read-out: pGI50 (converted)) of the same molecule?
Its GI50 is 692 nM.

And the CC50 [21, 32]?
Its CC50 is 4.57 µM.

And the TGI ([21]; read-out: pTGI (converted))?
Its TGI is 2090 nM.

What about the growth at 1 µM [22] of the same molecule?
The growth at 1 µM was 88%.

And the growth at 0.01 µM [23]?
Its growth at 0.01 µM is 109%.

What about the growth at 1 µM [24] of the same molecule?
The growth at 1 µM was 16%.

And the growth at 0.01 µM [25]?
Its growth at 0.01 µM is 101%.

And the growth at 0.1 µM [26]?
Its growth at 0.1 µM is 94%.

And the GI50 ([27]; read-out: GI50)?
Its GI50 is 1620 nM.

What about the TGI ([27]; read-out: TGI) of the same molecule?
Its TGI is 3.33 µM.

And the GI50 ([27]; read-out: pGI50 (converted))?
The GI50 was 1620 nM.

And the TGI ([27]; read-out: pTGI (converted))?
The TGI was 3.31 µM.

And the growth at 0.01 µM [28]?
Its growth at 0.01 µM is 90%.

And the growth at 100 µM [29]?
Its growth at 100 µM is -96%.

And the growth at 1 µM [30]?
The growth at 1 µM was 54%.
